In brackets after ≈: the same amount, converted by molar mass.
Assays:
[1] = molecular target: T1, High affinity nerve growth factor receptor (Homo sapiens, UniProt P04629)
Description: Inhibition of human TRKA kinase domain by HTRF KinEASE biochemical assay

[2] = molecular target: T1, High affinity nerve growth factor receptor; remark: listed apart in the source
Description: Inhibition of human TRKA by FLIPR assay

[3] = molecular target: BDNF/NT-3 growth factors receptor (Homo sapiens, UniProt Q16620)
Description: Inhibition of human TRKB by FLIPR assay

in vitro [4] = settings: dog, liver microsomes
Description: Half-life in dog liver microsome

in vitro [5] = settings: cat, liver microsomes
Description: Half-life in cat liver microsome

in vitro [6] = settings: dog, MDCK
Description: Permeability from apical to basolateral side in dog MDCK cells

in vitro [7] = settings: dog, MDCK-MDR1
Description: Permeability from basolateral to apical side in dog MDCK cells

[8] = molecular target: T1, High affinity nerve growth factor receptor; remark: listed apart in the source
Description: Inhibition of human TRKA at inactive state assessed as inhibition of substrate phosphorylation using fluorescently-labelled peptide as substrate by caliper assay

[9] = molecular target: T1, High affinity nerve growth factor receptor; remark: listed apart in the source
Description: Inhibition of human TRKA at active state assessed as inhibition of substrate phosphorylation using fluorescently-labelled peptide as substrate by caliper assay

[10] = molecular target: T1, High affinity nerve growth factor receptor; remark: listed apart in the source
Description: Inhibition of human TRKA at inactive state by kinetic based analysis

[11] = molecular target: T1, High affinity nerve growth factor receptor; remark: listed apart in the source
Description: Inhibition of human TRKA at active state by kinetic based analysis

Chain of BDNF/NT-3 growth factors receptor (Q16620 whole entry): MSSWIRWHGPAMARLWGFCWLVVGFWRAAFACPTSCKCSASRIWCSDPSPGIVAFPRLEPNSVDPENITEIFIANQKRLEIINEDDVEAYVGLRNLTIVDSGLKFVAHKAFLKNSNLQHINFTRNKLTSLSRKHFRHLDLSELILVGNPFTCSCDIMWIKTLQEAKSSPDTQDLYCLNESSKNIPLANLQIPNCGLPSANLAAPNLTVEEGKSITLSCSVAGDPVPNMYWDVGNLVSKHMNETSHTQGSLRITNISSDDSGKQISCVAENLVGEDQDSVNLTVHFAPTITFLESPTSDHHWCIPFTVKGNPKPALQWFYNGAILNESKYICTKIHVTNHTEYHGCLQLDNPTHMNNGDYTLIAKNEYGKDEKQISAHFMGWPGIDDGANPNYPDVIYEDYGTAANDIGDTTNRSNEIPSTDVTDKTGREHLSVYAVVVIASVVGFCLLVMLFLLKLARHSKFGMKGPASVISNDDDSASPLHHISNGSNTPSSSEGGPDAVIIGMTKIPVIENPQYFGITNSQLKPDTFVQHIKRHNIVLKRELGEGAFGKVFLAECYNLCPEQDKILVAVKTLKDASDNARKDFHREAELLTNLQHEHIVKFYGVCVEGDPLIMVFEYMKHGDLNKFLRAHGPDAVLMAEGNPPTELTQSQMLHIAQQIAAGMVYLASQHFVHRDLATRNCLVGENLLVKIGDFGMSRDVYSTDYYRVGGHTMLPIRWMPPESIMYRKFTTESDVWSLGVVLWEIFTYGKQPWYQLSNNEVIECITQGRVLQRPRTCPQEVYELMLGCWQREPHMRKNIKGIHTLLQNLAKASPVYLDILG
T1 sequence (P04629 whole entry): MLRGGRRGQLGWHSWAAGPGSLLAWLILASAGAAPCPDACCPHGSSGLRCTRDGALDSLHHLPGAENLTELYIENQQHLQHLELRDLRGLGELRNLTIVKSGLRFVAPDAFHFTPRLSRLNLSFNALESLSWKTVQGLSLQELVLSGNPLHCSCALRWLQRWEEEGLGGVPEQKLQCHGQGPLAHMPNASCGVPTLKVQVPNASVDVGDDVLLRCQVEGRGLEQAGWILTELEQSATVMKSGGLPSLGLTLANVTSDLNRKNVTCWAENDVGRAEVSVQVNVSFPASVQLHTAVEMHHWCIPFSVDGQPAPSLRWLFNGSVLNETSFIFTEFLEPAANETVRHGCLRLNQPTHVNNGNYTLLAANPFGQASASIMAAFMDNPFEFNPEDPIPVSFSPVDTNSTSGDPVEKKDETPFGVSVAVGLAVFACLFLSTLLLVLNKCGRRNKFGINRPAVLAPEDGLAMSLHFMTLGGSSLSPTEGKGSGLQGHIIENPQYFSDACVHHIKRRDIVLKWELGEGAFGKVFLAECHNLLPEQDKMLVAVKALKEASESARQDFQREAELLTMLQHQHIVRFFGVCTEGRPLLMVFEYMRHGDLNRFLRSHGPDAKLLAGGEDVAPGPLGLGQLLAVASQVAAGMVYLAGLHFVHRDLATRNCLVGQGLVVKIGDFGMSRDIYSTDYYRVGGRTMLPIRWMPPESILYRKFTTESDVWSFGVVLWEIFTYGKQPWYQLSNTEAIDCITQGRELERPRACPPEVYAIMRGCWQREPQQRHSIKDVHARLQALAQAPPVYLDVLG
Description for physchem: Kinetic solubility of compound

Question: For `COc1ccc(-n2ncc3c(=O)n(CC(=O)Nc4cc(C(F)(F)F)ccc4Cl)cnc32)cc1`, which IC50 [1] is on record?
Answer: Its IC50 is 102 nM.

Question: What about the IC50 [2] of the same compound?
Answer: The IC50 was 7500 nM.

Question: What about the IC50 [3] of the same compound?
Answer: The IC50 was greater than 20000 nM.

Question: And the half-life (in vitro [4])?
Answer: The half-life was 2 h.

Question: And the half-life (in vitro [5])?
Answer: Its half-life is 2 h.

Question: And the Papp A→B (in vitro [6])?
Answer: The Papp A→B was 4.8 ×10⁻⁶ cm/s.

Question: And the Papp B→A (in vitro [7])?
Answer: The Papp B→A was 6.4 ×10⁻⁶ cm/s.

Question: What about the solubility kinetic (physchem) of the same compound?
Answer: The solubility kinetic was 3.5 µM (≈ 1.67 µg/mL).

Question: Which IC50 [1] does the source give for `O=C(Nc1ccc(N2CCOCC2)cc1N1CCOCC1)c1cnn(-c2ccccc2)n1` here?
Answer: Its IC50 is 5.2 nM.

Question: And the IC50 [2]?
Answer: The IC50 was 170 nM.

Question: What about the IC50 [3] of the same compound?
Answer: Its IC50 is 15900 nM.

Question: And the IC50 [8]?
Answer: The IC50 was 21 nM.

Question: What about the IC50 [9] of the same compound?
Answer: The IC50 was 45 nM.

Question: What about the Ki [10] of the same compound?
Answer: The Ki was 1 nM.

Question: And the Ki [11]?
Answer: The Ki was 0.4 nM.

Question: What about the half-life (in vitro [4]) of the same compound?
Answer: Its half-life is 1.35 h.

Question: And the half-life (in vitro [5])?
Answer: The half-life was 0.267 h.

Question: And the Papp A→B (in vitro [6])?
Answer: The Papp A→B was 4.1 ×10⁻⁶ cm/s.

Question: What about the Papp B→A (in vitro [7]) of the same compound?
Answer: Its Papp B→A is 7.6 ×10⁻⁶ cm/s.

Question: What about the solubility kinetic (physchem) of the same compound?
Answer: The solubility kinetic was 12.7 µM (≈ 5.52 µg/mL).

Question: What does the source list for `COc1ccc(Cl)cc1NC(=O)Nc1ccc2nc(NC(=O)c3ccccc3)sc2c1`?
Answer: IC50 [1]: 178 nM; IC50 [2]: > 20000 nM; IC50 [3]: > 20000 nM; IC50 [8]: > 10000 nM; IC50 [9]: > 10000 nM; half-life (in vitro [4]): 1.25 h; half-life (in vitro [5]): 0.933 h; solubility kinetic (physchem): 1.3 µM (≈ 0.589 µg/mL)

Question: Which results are given for `O=C(Nc1ccc(N2CCOCC2)cc1N1CCOCC1)c1cccc(Oc2ccccc2)c1`?
Answer: IC50 [8]: 94 nM; IC50 [9]: 76 nM

Question: Which results are given for `NC(=O)c1ccc(-c2nnn(CC(=O)Nc3cc(C(F)(F)F)ccc3-n3cncn3)n2)cc1`?
Answer: IC50 [1]: 47.1 nM; IC50 [2]: > 20000 nM; IC50 [3]: > 20000 nM; half-life (in vitro [4]): 2 h; half-life (in vitro [5]): 2 h; solubility kinetic (physchem): 15.9 µM (≈ 7.27 µg/mL)

— ChEMBL document CHEMBL4715685, “Synthetic inhibitor leads of human tropomyosin receptor kinase A (hTrkA)” (RSC Med Chem, 2020)
